Experimental data reported in patent publication US11046699B2, “Pyrazolo-pyrimidin-amino-cycloalkyl compounds and their therapeutic uses” (RAPT THERAPEUTICS, INC., priority 2018, dated 2021).
Like-named read-outs stand apart in the source and are kept apart here.

Target: GCN2 (Homo sapiens, UniProt Q9P2K8)
Experiment: GCN2 enzymatic endpoint assay: phosphorylation of GFP-eIF2α measured by TR-FRET (Lanthascreen)
Assay type: biochemical
Outline: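 Phosphorylated eIF2α read by Lanthascreen TR-FRET (acceptor 520 nm over donor 495 nm) after EDTA stop. The reaction ran 90 min at room temperature on 80 nM GFP-eIF2α with 2 μM ATP.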

[1] = tested as described in Example 77, compound and/or hydrochloride, dihydrochloride or trifluoroacetic acid salt, read-out: IC 50 Activity
[2] = GCN2 biochemical IC50, 4 nM GCN2, 2 μM ATP, 80 nM GFP-eIF2α, 90 min RT, read-out: GCN2 activity

Chain of GCN2 (Q9P2K8 whole entry): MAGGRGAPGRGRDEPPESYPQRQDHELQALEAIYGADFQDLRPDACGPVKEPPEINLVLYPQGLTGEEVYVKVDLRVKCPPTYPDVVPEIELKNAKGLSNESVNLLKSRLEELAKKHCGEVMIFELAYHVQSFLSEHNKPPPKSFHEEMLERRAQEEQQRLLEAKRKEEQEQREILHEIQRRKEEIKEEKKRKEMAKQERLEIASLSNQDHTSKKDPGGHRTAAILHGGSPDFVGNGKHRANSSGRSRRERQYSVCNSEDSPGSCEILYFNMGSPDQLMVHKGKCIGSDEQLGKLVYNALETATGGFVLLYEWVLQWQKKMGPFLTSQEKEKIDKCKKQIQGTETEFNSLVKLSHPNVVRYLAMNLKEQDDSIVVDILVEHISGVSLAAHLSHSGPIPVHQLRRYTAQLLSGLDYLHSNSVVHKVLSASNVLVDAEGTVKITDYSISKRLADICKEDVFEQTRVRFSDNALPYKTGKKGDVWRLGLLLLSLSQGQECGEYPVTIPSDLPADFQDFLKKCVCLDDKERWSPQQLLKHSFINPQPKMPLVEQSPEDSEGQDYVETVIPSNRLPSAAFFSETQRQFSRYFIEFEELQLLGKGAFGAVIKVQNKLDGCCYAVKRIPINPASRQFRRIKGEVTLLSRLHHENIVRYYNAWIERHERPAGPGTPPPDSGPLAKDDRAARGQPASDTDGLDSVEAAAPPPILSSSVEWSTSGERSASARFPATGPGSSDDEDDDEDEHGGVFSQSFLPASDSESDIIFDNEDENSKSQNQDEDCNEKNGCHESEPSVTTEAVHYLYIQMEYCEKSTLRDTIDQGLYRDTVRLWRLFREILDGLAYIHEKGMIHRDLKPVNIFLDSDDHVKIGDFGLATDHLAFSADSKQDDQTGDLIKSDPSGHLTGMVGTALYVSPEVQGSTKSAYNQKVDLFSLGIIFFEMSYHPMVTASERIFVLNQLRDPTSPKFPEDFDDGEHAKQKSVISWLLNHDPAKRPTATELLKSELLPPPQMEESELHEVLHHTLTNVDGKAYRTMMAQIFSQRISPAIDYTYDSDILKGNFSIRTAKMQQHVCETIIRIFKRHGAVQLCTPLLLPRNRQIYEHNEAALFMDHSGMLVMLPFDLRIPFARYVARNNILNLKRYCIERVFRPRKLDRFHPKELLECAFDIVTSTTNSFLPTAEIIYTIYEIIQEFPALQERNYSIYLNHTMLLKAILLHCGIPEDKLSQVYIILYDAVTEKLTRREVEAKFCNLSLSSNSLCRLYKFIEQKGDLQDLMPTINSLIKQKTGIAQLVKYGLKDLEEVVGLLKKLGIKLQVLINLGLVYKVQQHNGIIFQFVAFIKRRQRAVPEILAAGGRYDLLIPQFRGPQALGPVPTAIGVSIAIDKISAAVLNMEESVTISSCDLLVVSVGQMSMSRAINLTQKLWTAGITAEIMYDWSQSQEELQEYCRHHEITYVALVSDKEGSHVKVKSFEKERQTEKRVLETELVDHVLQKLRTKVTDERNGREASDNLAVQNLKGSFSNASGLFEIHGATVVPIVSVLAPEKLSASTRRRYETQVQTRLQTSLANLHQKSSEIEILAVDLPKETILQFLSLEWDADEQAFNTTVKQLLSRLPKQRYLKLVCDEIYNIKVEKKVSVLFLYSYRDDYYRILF

| Structure (SMILES) | IC50 [1] [µM] | IC50 [2] [µM] |
| --- | --- | --- |
| Cc1nnc(-c2ccc(-n3nc(Br)c4cnc(NC5CCN(CC(F)F)C5)nc43)cc2)s1 (stereo not drawn) [3-bromo-N-[1-(2,2-difluoroethyl)pyrrolidin-3-yl]-1-[4-(5-methyl-1,3,4-thiadiazol-2-yl)phenyl] pyrazolo[3,4-d]pyrimidin-6-amine] | 0.025 to 0.2 |  |
| CNC(=O)[C@]1(OC)CC[C@@H](Nc2ncc3c(Br)nn(-c4cc(F)c5ncccc5c4)c3n2)C1 [(1S,3R)-3-[[3-bromo-1-(8-fluoro-6-quinolyl)pyrazolo[3,4-d]pyrimidin-6-yl]amino]-1-methoxy-N-methyl-cyclopentanecarboxamide] | 0.025 to 0.2 |  |
| CNC(=O)[C@]1(C)CC[C@@H](Nc2ncc3c(Br)nn(-c4ccc(-n5nccc5C)cc4)c3n2)C1 [(1R,3R)-3-[[3-bromo-1-[4-(5-methyl-pyrazol-1-yl)phenyl]pyrazolo[3,4-d]pyrimidin-6-yl]amino]-N,1-dimethyl-cyclopentanecarboxamide] | 0.025 to 0.2 |  |
| CNC(=O)[C@]1(C)CC[C@@H](Nc2ncc3c(Br)nn(-c4cc(CC#N)c5ncccc5c4)c3n2)C1 [(1R,3R)-3-[[3-bromo-1-[8-(cyanomethyl)-6-quinolyl]pyrazolo[3,4-d]pyrimidin-6-yl]amino]-N,1-dimethyl-cyclopentane-carboxamide] | < 0.025 |  |
| CNC(=O)[C@]1(CO)CC[C@@H](Nc2ncc3c(Br)nn(-c4ccc(-c5nnc(C)s5)c(CCC#N)c4)c3n2)C1 [(1R,3R)-3-[[3-bromo-1-[3-(2-cyanoethyl)-4-(5-methyl-1,3,4-thiadiazol-2-yl)phenyl]pyrazolo[3,4-d]pyrimidin-6-yl]amino]-1-(hydroxymethyl)-N-methyl-cyclopentane-carboxamide] | 0.025 to 0.2 |  |
| CNC(=O)[C@]1(C)CC[C@@H](Nc2ncc3c(Br)nn(-c4ccc5c(c4)CN(C=O)CC5)c3n2)C1 [(1R,3R)-3-[[3-bromo-1-(2-formyl-3,4-dihydro-1H-isoquinolin-7-yl)pyrazolo [3,4-d]pyrimidin-6-yl]amino]-N,1-dimethyl-cyclopentanecarboxamide] | 0.025 to 0.2 |  |
| CNC(=O)[C@]1(C)CC[C@@H](Nc2ncc3c(Br)nn(-c4ccc5nc[nH]c(=O)c5c4)c3n2)C1 | 0.025 to 0.2 |  |
| CNC(=O)[C@H]1C[C@H](Nc2ncc3c(Br)nn(-c4cc(Cl)cc(CO)c4)c3n2)CO1 [(2R,4S)-4-[[3-bromo-1-[3-chloro-5-(hydroxymethyl)phenyl]pyrazolo [3,4-d]pyrimidin-6-yl]amino]-N-methyl-tetrahydrofuran-2-carboxamide] | 0.025 to 0.2 |  |
| CNC(=O)[C@]1(CCC(F)(F)F)CC[C@@H](Nc2ncc3c(Br)nn(-c4cc(F)c5ncccc5c4)c3n2)C1 [(1S,3R)-3-[[3-bromo-1-(8-fluoro-6-quinolyl)pyrazolo[3,4-d]pyrimidin-6-yl]amino]-N-methyl-1-(3,3,3-trifluoropropyl)cyclopentane-carboxamide] | 0.025 to 0.2 |  |
| COCCNC(=O)[C@H]1C[C@H](Nc2ncc3c(Br)nn(-c4ccc5ncccc5c4)c3n2)C1 [Example 2, (1r,3r)-3-((3-bromo-1-(quinolin-6-yl)-1H-pyrazolo[3,4-d]pyrimidin-6-yl)amino)-N-(2-methoxyethyl)cyclobutane-1-carboxamide] |  | 0.025 to 0.2 |
| Cc1nnc(-c2ccc(-n3nc(Br)c4cnc(NC5CC(O)C5)nc43)cc2)s1 (stereo not drawn) [3-[[3-bromo-1-[4-(5-methyl-1,3,4-thiadiazol-2-yl)phenyl]pyrazolo[3,4-d]pyrimidin-6-yl]amino]cyclobutanol] | 0.025 to 0.2 |  |
| CNC(=O)[C@]1(CC(F)F)CC[C@@H](Nc2ncc3c(Br)nn(-c4ccc(-c5nnc(C)s5)cc4)c3n2)C1 [Example 39, (1R,3R)-3-((3-bromo-1-(4-(5-methyl-1,3,4-thiadiazol-2-yl)phenyl)-1H-pyrazolo[3,4-d]pyrimidin-6-yl)amino)-1-(2,2-difluoroethyl)-N-methylcyclopentane-1-carboxamide; 2,2,2-trifluoroacetic acid] |  | < 0.025 |
| O=C([C@@H]1CC[C@@H](Nc2ncc3c(Br)nn(-c4cc(F)c5ncccc5c4)c3n2)C1)N1CCC(O)(C(=O)O)C1 (stereo partly drawn) [1-((1R,3R)-3-((3-bromo-1-(8-fluoroquinolin-6-yl)-1H-pyrazolo[3,4-d]pyrimidin-6-yl)amino)cyclopentane-1-carbonyl)-3-hydroxy-pyrrolidine-3-carboxylic acid] | 0.5 to 1 |  |
| Cc1nnc(-c2ccc(-n3nc(Br)c4cnc(N[C@@H]5CC[C@@](C)(N)C5)nc43)cc2CCC#N)s1 | 0.025 to 0.2 |  |
| CNC(=O)[C@]1(C)CC[C@@H](Nc2ncc3c(Br)nn(-c4ccc(-c5nnc(C(C)(C)N)s5)c(F)c4)c3n2)C1 [(1R,3R)-3-[[1-[4-[5-(1-amino-1-methyl-ethyl)-1,3,4-thiadiazol-2-yl]-3-fluoro-phenyl]-3-bromo-pyrazolo[3,4-d]pyrimidin-6-yl]amino]-N,1-dimethyl-cyclopentanecarboxamide] | < 0.025 |  |
| O=C(NCCN1CCNC1=O)[C@@H]1CC[C@@H](Nc2ncc3c(Br)nn(-c4cc(F)c5ncccc5c4)c3n2)C1 [(1R,3R)-3-((3-bromo-1-(8-fluoroquinolin-6-yl)-1H-pyrazolo[3,4-d]pyrimidin-6-yl)amino)-N-(2-(2-oxoimidazolidin-1-yl)ethyl)cyclo-pentane-1-carboxamide] | 0.025 to 0.2 |  |
| Cc1nnc(-c2ccc(-n3nc(Br)c4cnc(NC5CC(S(C)(=O)=O)C5)nc43)cc2)s1 (stereo not drawn) [3-bromo-N-(3-methylsulfonylcyclobutyl)-1-[4-(5-methyl-1,3,4-thiadiazol-2-yl)phenyl] pyrazolo[3,4-d]pyrimidin-6-amine] | 0.025 to 0.2 |  |
| CNC(=O)[C@]1(C)CC[C@@H](Nc2ncc3c(Br)nn(-c4ccc5nc(N6CCN(C)CC6)ncc5c4)c3n2)C1 [(1R,3R)-3-[[3-bromo-1-[2-(4-methylpiperazin-1-yl)quinazolin-6-yl]pyrazolo[3,4-d]pyrimidin-6-yl]amino]-N,1-dimethyl-cyclo-pentanecarboxamide; 2,2,2-trifluoroacetic acid] | 0.025 to 0.2 |  |
| CNC(=O)[C@]1(C)CC[C@@H](Nc2ncc3c(Br)nn(-c4cccc(NC(=O)c5cncnc5)c4)c3n2)C1 [N-[3-[3-bromo-6-[[(1R,3R)-3-methyl-3-(methylcarbamoyl)cyclopentyl]amino]pyrazolo[3,4-d]pyrimidin-1-yl]phenyl] pyrimidine-5-carboxamide] | 0.025 to 0.2 |  |
| CNC(=O)[C@]1(C)CC[C@@H](Nc2ncc3c(Br)nn(-c4cc(Cl)cc([C@@H](C)N)c4)c3n2)C1 | < 0.025 |  |
| CC1(O)CC[C@@H](Nc2ncc3c(Br)nn(-c4cc(CCN)c5ncccc5c4)c3n2)C1 (stereo partly drawn) | 0.025 to 0.2 |  |
| CNC(=O)[C@]1([C@@H](C)C#N)CC[C@@H](Nc2ncc3c(Br)nn(-c4ccc(-c5nnc(C)s5)cc4)c3n2)C1 [(1R,3R)-3-[[3-bromo-1-[4-(5-methyl-1,3,4-thiadiazol-2-yl)phenyl]pyrazolo [3,4-d]pyrimidin-6-yl]amino]-1-[(1R)-1-cyanoethyl]-N-methyl-cyclopentane-carboxamide] | 0.025 to 0.2 |  |
| COCCNC(=O)[C@@H]1CC[C@@H](Nc2ncc3c(Br)nn(-c4ccc5cccnc5c4)c3n2)C1 [(1R,3R)-3-((3-bromo-1-(quinolin-7-yl)-1H-pyrazolo[3,4-d]pyrimidin-6-yl)amino)-N-(2-methoxyethyl)cyclopentane-1-carboxamide] | 0.2 to 0.5 |  |
| O=C(NC[C@H]1COCCN1)[C@@H]1CC[C@@H](Nc2ncc3c(Br)nn(-c4cc(F)c5ncccc5c4)c3n2)C1 | 0.025 to 0.2 |  |
